EC50 data for 20 molecules are collected here from patent US20120045393A1 (priority 2009, published 2012).

As usually defined, the EC50 is the concentration giving half of the maximal effect.

Non-standard residues stand in square brackets, D forms with d. Residues, ends and D or L forms follow the SMILES beside them. *: point of attachment. DOTA = O=C(O)CN1CCN(CC(=O)O)CCN(CC(=O)*)CCN(CC(=O)O)CC1; Bpa = N[C@@H](Cc1ccc(C(=O)c2ccccc2)cc1)C(=O)O; d2Nal = N[C@H](Cc1ccc2ccccc2c1)C(=O)O; 3Pal = N[C@@H](Cc1cccnc1)C(=O)O; azaGly = NNC(=O)O; Sar = CNCC(=O)O
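Further: Cell-associated radioactivity on confluent EFO-27 monolayers in 96-well plates, measured by microplate scintillation counting.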

The subject of one assay is LHRH binding sites on human ovarian cancer cells (EFO-27).
Conditions: not given
For `CC(=O)N[C@@H](Cc1ccc(CNC(=O)CN2CCN(CC(=O)O)CCN(CC(=O)O)CCN(CC(=O)O)CC2)cc1)C(=O)N[C@@H](Cc1c[nH]cn1)C(=O)N[C@@H](Cc1c[nH]c2ccccc12)C(=O)N[C@@H](CO)C(=O)N[C@@H](Cc1c[nH]cn1)C(=O)N[C@H](CCCNC(=N)N)C(=O)N[C@@H](Cc1c[nH]c2ccccc12)C(=O)N[C@@H](Cc1ccc(C(=O)c2ccccc2)cc1)C(=O)N1CCC[C@H]1C(=O)NNC(N)=O` [BRU-2881], a half-maximal response (EC50) required 1380 nM. On the same count and under the same terms, the same measure for `CN(CC(=O)N[C@@H](Cc1cccnc1)C(=O)N[C@@H](Cc1c[nH]c2ccccc12)C(=O)N[C@@H](CO)C(=O)N[C@@H](Cc1c[nH]cn1)C(=O)N[C@H](CCCNC(=N)N)C(=O)N[C@@H](Cc1c[nH]c2ccccc12)C(=O)N[C@@H](Cc1ccc(C(=O)c2ccccc2)cc1)C(=O)N1CCC[C@H]1C(=O)NNC(N)=O)C(=O)CN1CCN(CC(=O)O)CCN(CC(=O)O)CCN(CC(=O)O)CC1` [BRU-2818] ({DOTA}-[Sar][3Pal]WSH[dR]W[Bpa]P[azaGly]-NH2): 1620 nM; for `N=C(N)NCCC[C@H](NC(=O)[C@@H](Cc1ccc2ccccc2c1)NC(=O)CN1CCN(CC(=O)O)CCN(CC(=O)O)CCN(CC(=O)O)CC1)C(=O)N[C@@H](Cc1c[nH]c2ccccc12)C(=O)N[C@@H](CO)C(=O)N[C@@H](Cc1c[nH]cn1)C(=O)N[C@H](CCCNC(=N)N)C(=O)N[C@@H](Cc1c[nH]c2ccccc12)C(=O)N[C@@H](Cc1ccc(C(=O)c2ccccc2)cc1)C(=O)N1CCC[C@H]1C(=O)NC(=N)N` [compound 2984]: 400 nM. `N=C(N)NCCC[C@H](NC(=O)[C@H](N)Cc1ccc2ccccc2c1)C(=O)N[C@@H](Cc1c[nH]c2ccccc12)C(=O)N[C@@H](CO)C(=O)N[C@@H](Cc1c[nH]cn1)C(=O)N[C@H](CCCNC(=N)N)C(=O)N[C@@H](Cc1c[nH]c2ccccc12)C(=O)N[C@@H](Cc1ccc(C(=O)c2ccccc2)cc1)C(=O)N1CCC[C@H]1C(=O)NCC(=O)NCCCCNC(=O)CN1CCN(CC(=O)O)CCN(CC(=O)O)CCN(CC(=O)O)CC1` [BRU-2990] had an EC50 above 30000 nM. `CN(CC(=O)N[C@@H](Cc1c[nH]cn1)C(=O)N[C@@H](Cc1c[nH]c2ccccc12)C(=O)N[C@@H](CO)C(=O)N[C@@H](Cc1c[nH]cn1)C(=O)N[C@H](CCCNC(N)=O)C(=O)N[C@@H](Cc1c[nH]c2ccccc12)C(=O)N[C@@H](Cc1ccc(C(=O)c2ccccc2)cc1)C(=O)N1CCC[C@H]1C(=O)NNC(N)=O)C(=O)CN1CCN(CC(=O)O)CCN(CC(=O)O)CCN(CC(=O)O)CC1` [BRU-2729] displayed a concentration giving a half-maximal response (EC50) of 14200 nM. The same measure, in the same setting: with `CC(C)C[C@H](NC(=O)[C@H](CO)NC(=O)[C@H](Cc1c[nH]c2ccccc12)NC(=O)[C@H](CCCNC(=N)N)NC(=O)[C@@H](Cc1ccc2ccccc2c1)NC(=O)CN1CCN(CC(=O)O)CCN(CC(=O)O)CCN(CC(=O)O)CC1)C(=O)N[C@H](CCCNC(=N)N)C(=O)N[C@@H](Cc1c[nH]c2ccccc12)C(=O)N[C@@H](Cc1ccc(C(=O)c2ccccc2)cc1)C(=O)N1CCC[C@H]1C(=O)NNC(N)=O` [BRU-3029] ({DOTA}-[d2Nal]RWSL[dR]W[Bpa]P[azaGly]-NH2; C-terminus assumed) the figure was 1210 nM. In the case of `CN(CC(=O)N[C@@H](Cc1c[nH]cn1)C(=O)N[C@@H](Cc1c[nH]c2ccccc12)C(=O)N[C@@H](CO)C(=O)N[C@@H](Cc1c[nH]cn1)C(=O)N[C@H](CCCNC(=N)N)C(=O)N[C@@H](Cc1c[nH]c2ccccc12)C(=O)N[C@@H](Cc1ccc(-c2ccccc2)cc1)C(=O)N1CCC[C@H]1C(=O)NNC(N)=O)C(=O)CN1CCN(CC(=O)O)CCN(CC(=O)O)CCN(CC(=O)O)CC1` [BRU-2625], it took 2140 nM to reach a half-maximal effect (EC50). Same read-out and setting: the same measure for `CNCC(=O)N[C@@H](CCCNC(=N)N)C(=O)N[C@@H](Cc1c[nH]c2ccccc12)C(=O)N[C@@H](CO)C(=O)N[C@@H](Cc1c[nH]cn1)C(=O)N[C@H](CCCNC(=N)N)C(=O)N[C@@H](Cc1c[nH]c2ccccc12)C(=O)N[C@@H](Cc1ccc(C(=O)c2ccccc2)cc1)C(=O)N1CCC[C@H]1C(=O)NCCOCCOCCNC(=O)CN1CCN(CC(=O)O)CCN(CC(=O)O)CCN(CC(=O)O)CC1` [BRU-3043]: 230 to 500 nM. On the same count and under the same terms, with `CNCC(=O)N[C@@H](CCCNC(=N)N)C(=O)N[C@@H](Cc1c[nH]c2ccccc12)C(=O)N[C@@H](CO)C(=O)N[C@@H](Cc1c[nH]cn1)C(=O)N[C@H](CCCNC(=N)N)C(=O)N[C@@H](Cc1c[nH]c2ccccc12)C(=O)N[C@@H](Cc1ccc(C(=O)c2ccccc2)cc1)C(=O)N1CCC[C@H]1C(=O)NCCCCCNC(=O)CN1CCN(CC(=O)O)CCN(CC(=O)O)CCN(CC(=O)O)CC1` [BRU-3085] the figure was 230 to 500 nM; with `CN(CC(=O)N[C@@H](Cc1c[nH]cn1)C(=O)N[C@@H](Cc1c[nH]c2ccccc12)C(=O)N[C@@H](CO)C(=O)N[C@@H](Cc1c[nH]cn1)C(=O)N[C@H](CCCNC(=N)N)C(=O)N[C@@H](Cc1c[nH]c2ccccc12)C(=O)N[C@@H](CCCNC(=N)N)C(=O)N1CCC[C@H]1C(=O)NNC(N)=O)C(=O)CN1CCN(CC(=O)O)CCN(CC(=O)O)CCN(CC(=O)O)CC1` [BRU-2723] (HELM PEPTIDE1{[O=C(O)CN1CCN(CC(=O)O)CCN(CC(=O)[*:2])CCN(CC(=O)O)CC1].[Sar].H.W.S.H.[dR].W.R.P.[O=C(NN[*:1])[*:2]].[am]}$$$$V2.0), 2830 nM.

Staying with this assay, now noted: EFO-27 cells, competition with [125I-Tyr8]BRU-2477, 90 min.
Regarding `C[C@@H](NC(=O)[C@H](Cc1c[nH]cn1)NC(=O)[C@H](CO)NC(=O)[C@H](Cc1c[nH]c2ccccc12)NC(=O)[C@H](Cc1c[nH]cn1)NC(=O)CN(C)C(=O)CN1CCN(CC(=O)O)CCN(CC(=O)O)CCN(CC(=O)O)CC1)C(=O)N[C@@H](Cc1c[nH]c2ccccc12)C(=O)N[C@@H](Cc1ccc(C(=O)c2ccccc2)cc1)C(=O)N1CCC[C@H]1C(=O)NNC(N)=O` [compound 2672] ({DOTA}-[Sar]HWSH[dA]W[Bpa]P[azaGly]-NH2), the EC50 came to 14000 nM. On the same count and under the same terms, the same measure for `N=C(N)NCCC[C@H](NC(=O)[C@@H](Cc1ccc2ccccc2c1)NC(=O)CN1CCN(CC(=O)O)CCN(CC(=O)O)CCN(CC(=O)O)CC1)C(=O)N[C@@H](Cc1c[nH]c2ccccc12)C(=O)N[C@@H](CO)C(=O)N[C@@H](Cc1c[nH]cn1)C(=O)N[C@H](CCCNC(=N)N)C(=O)N[C@@H](Cc1c[nH]c2ccccc12)C(=O)N[C@@H](Cc1ccc(C(=O)c2ccccc2)cc1)C(=O)N1CCC[C@H]1C(=O)NCC(=O)NCCCCO` [compound 2978]: 2000 nM; for `N=C(N)NCCC[C@H](NC(=O)[C@@H](Cc1ccc2ccccc2c1)NC(=O)CN1CCN(CC(=O)O)CCN(CC(=O)O)CCN(CC(=O)O)CC1)C(=O)N[C@@H](Cc1c[nH]c2ccccc12)C(=O)N[C@@H](CO)C(=O)N[C@@H](Cc1c[nH]cn1)C(=O)N[C@H](CCCNC(=N)N)C(=O)N[C@@H](Cc1c[nH]c2ccccc12)C(=O)N[C@@H](Cc1ccc(C(=O)c2ccccc2)cc1)C(=O)N1CCC[C@H]1C(=O)NCC(=O)N[C@@H](CCC(N)=O)C(N)=O` [compound 2971] ({DOTA}-[d2Nal]RWSH[dR]W[Bpa]PGQ-NH2): 490 nM; for `CN(CC(=O)N[C@@H](Cc1c[nH]cn1)C(=O)N[C@@H](Cc1c[nH]c2ccccc12)C(=O)N[C@@H](CO)C(=O)N[C@@H](Cc1c[nH]cn1)C(=O)N[C@H](CCCCNC(=N)N)C(=O)N[C@@H](Cc1c[nH]c2ccccc12)C(=O)N[C@@H](Cc1ccc(C(=O)c2ccccc2)cc1)C(=O)N1CCC[C@H]1C(=O)NNC(N)=O)C(=O)CN1CCN(CC(=O)O)CCN(CC(=O)O)CCN(CC(=O)O)CC1` [BRU-2893]: 2600 nM. The same measure, in the same setting: the same measure for `N=C(N)NCCC[C@H](NC(=O)[C@@H](Cc1ccc2ccccc2c1)NC(=O)CN1CCN(CC(=O)O)CCN(CC(=O)O)CCN(CC(=O)O)CC1)C(=O)N[C@@H](Cc1c[nH]c2ccccc12)C(=O)N[C@@H](CO)C(=O)N[C@@H](Cc1c[nH]cn1)C(=O)N[C@H](CCCNC(=N)N)C(=O)N[C@@H](Cc1c[nH]c2ccccc12)C(=O)N[C@@H](Cc1ccc(C(=O)c2ccccc2)cc1)C(=O)N1CCC[C@H]1C(=O)NCC(=O)NCc1ccccc1` [compound 2988]: 650 nM.

Still in this assay, the particulars now being: Table 5: modifications of amino acids at positions 1 and 2; in vitro binding on EFO-27 cells.
Consider `CN(CC(=O)N[C@@H](Cc1c[nH]cn1)C(=O)N[C@@H](Cc1c[nH]c2ccccc12)C(=O)N[C@@H](CO)C(=O)N[C@@H](Cc1c[nH]cn1)C(=O)N[C@H](CCCNC(=N)N)C(=O)N[C@@H](Cc1c[nH]c2ccccc12)C(=O)N[C@@H](Cc1ccc(C(=O)c2ccccc2)cc1)C(=O)N1CCC[C@H]1C(=O)NNC(N)=O)C(=O)CNC(=O)CN1CCN(CC(=O)O)CCN(CC(=O)O)CCN(CC(=O)O)CC1` [BRU-2717], for which the response was half-maximal at 1550 nM (EC50). The molecule `N=C(N)NCCC[C@@H](NC(=O)[C@H](Cc1c[nH]cn1)NC(=O)[C@H](CO)NC(=O)[C@H](Cc1c[nH]c2ccccc12)NC(=O)[C@H](Cc1c[nH]cn1)NC(=O)[C@@H]1CSCN1C(=O)CNC(=O)CN1CCN(CC(=O)O)CCN(CC(=O)O)CCN(CC(=O)O)CC1)C(=O)N[C@@H](Cc1c[nH]c2ccccc12)C(=O)N[C@@H](Cc1ccc(C(=O)c2ccccc2)cc1)C(=O)N1CCC[C@H]1C(=O)NNC(N)=O` [BRU-2728] came in with a concentration for a half-maximal effect (EC50) of 3150 nM.

Molecule `CN(CC(=O)N[C@@H](Cc1cn(C)cn1)C(=O)N[C@@H](Cc1c[nH]c2ccccc12)C(=O)N[C@@H](CO)C(=O)N[C@@H](Cc1c[nH]cn1)C(=O)N[C@H](CCCNC(=N)N)C(=O)N[C@@H](Cc1c[nH]c2ccccc12)C(=O)N[C@@H](Cc1ccc(C(=O)c2ccccc2)cc1)C(=O)N1CCC[C@H]1C(=O)NNC(N)=O)C(=O)CN1CCN(CC(=O)O)CCN(CC(=O)O)CCN(CC(=O)O)CC1` [BRU-2741] gave an EC50 of 2990 nM. Same read-out and setting: the same measure for `N=C(N)NCCC[C@@H](NC(=O)[C@H](Cc1c[nH]cn1)NC(=O)[C@H](CO)NC(=O)[C@H](Cc1c[nH]c2ccccc12)NC(=O)[C@H](Cc1c[nH]cn1)NC(=O)[C@H](NC(=O)CNC(=O)CN1CCN(CC(=O)O)CCN(CC(=O)O)CCN(CC(=O)O)CC1)c1cccc2ccccc12)C(=O)N[C@@H](Cc1c[nH]c2ccccc12)C(=O)N[C@@H](Cc1ccc(C(=O)c2ccccc2)cc1)C(=O)N1CCC[C@H]1C(=O)NNC(N)=O` [BRU-2770]: 2700 nM.

The assay is the same for the next values; noted with them: Table 11: modification of amino acid at position 5; EFO-27 cells.
In the case of `CC(C)C[C@H](NC(=O)[C@@H](CCCNC(=N)N)NC(=O)[C@H](Cc1ccc(O)cc1)NC(=O)[C@H](CO)NC(=O)[C@H](Cc1c[nH]c2ccccc12)NC(=O)[C@H](Cc1c[nH]cn1)NC(=O)CN(C)C(=O)CN1CCN(CC(=O)O)CCN(CC(=O)O)CCN(CC(=O)O)CC1)C(=O)N[C@@H](Cc1ccc(C(=O)c2ccccc2)cc1)C(=O)N1CCC[C@H]1C(=O)NNC(N)=O` [compound 2670] ({DOTA}-[Sar]HWSY[dR]L[Bpa]P[azaGly]-NH2), the 50% effective concentration (EC50) came out at 8840 nM.
